Data taken from US20060270742A1, “Compositions and methods for the treatment of neurodegenerative diseases” (priority 2005, published 2006).

Tests used:
SMN protein [1] = assay: SMN cytoblot assay in SMA patient fibroblasts; format: cell-based, human; settings: for SMN protein levels: SMA patient fibroblasts, cytoblot; for SMN per viable cell (normalized hit): SMN cytoblot relative to cell number estimated by Alamar blue
Protocol: One method for monitoring SMN protein levels in cells is through use of a cytoblot assay, in which cells are fixed and probed with an antibody against a target protein of interest.
Using the cytoblot assay, we can clearly distinguish SMN protein levels in patient (GM03813) versus carrier fibroblast cells (GM03814).
The SMN cytoblot protocol is described below.
• 1. Plate 50 μl per well of 300,000 cells/ml (15,000 cells per well) into Nunc white 384-well opaque-bottomed plates. • 2. Incubate plates at 37° C., 5% CO2 overnight. Day 2 • 1. Aspirate media from wells using Tecan plate washer. • 2. Fix cells by adding 20 μl/well of cold methanol (kept in −20° C. freezer). • 3. Incubate plates in 4° C. refrigerator for 10 minutes. • 4. Aspirate methanol using Tecan plate washer. • 5. Add 50 μl/well of primary Ab solution, (BD anti-SMN Ab diluted to 125 ng/ml in 10% fetal goat serum PBST), using multi-drop. • 6. Seal plates and incubate overnight at room temperature. Day 3 • 1. After 16-20 hrs incubation, wash plates with PBST 2× using Tecan plate washer. • 2. Add 50 μl of secondary Ab solution, (Santa Cruz goat anti-Mouse-HRP diluted to 67 ng/ml in 10% fetal goat serum PBST). • 3. Seal plates and incubate 2 hrs at room temperature. • 4. Wash plates with PBST 2× using Tecan plate washer. • 5. Add 50 μl/well 10% fetal goat serum PBST. • 6. Incubate in 4° C. refrigerator for 10 minutes. • 7. Aspirate plates using plate washer and add ECL luminescence solution, 20 μl/well. • 8. Measure luminescence on plate reader. Automated Scoring
We scored each compound based on the maximum signal-to-noise ratio (SNR) found among its dose curves. These scores are based on edge-corrected SMN data, using only plates that passed quality control. The untreated level on each plate was found by taking the median of the untreated wells, and for each treated well we calculated a log(T/U) ratio. Each curve was generated in triplicate on each plate, so each point on a compound's dose curve was obtained by determining the median for the replicate points. Each ratio thus has an error estimate from the scatter between the triplicate data points (1.5 times the median absolute deviation from the median). For each dose curve, we calculated the SNR for each data point log(T/U)/error, and chose the maximum point as our indicator of SMN induction activity. Since this is a signal-to-noise score, scores much greater than one indicate significant activity, assuming normal statistics. We decided to use a cutoff signal-to-noise ratio of 6. This selection represents a considerable enrichment towards visually-selected compounds. We identified 100 out of 2000 compounds producing scores>6. This included 13 of the 28 visual selections.
• 1. […] Type 3 reversal of curve hits […]

SMN protein [2] = assay: Western blot of SMN protein in treated cells; format: cell-based, human; settings: 72 hours treatment, densitometry, fold change relative to vehicle (DMSO)
Protocol: Effects on SMN protein levels were also confirmed by western blots. Cells were treated with compound or vehicle for 72 hours. Cell lysates were prepared and analyzed by western blot. SMN protein levels were quantified by densitometry and normalized to an internal control protein (GAPdH or EIF4e) (FIGS. 4-6). The SMN/control ratios shown in FIGS. 4-6 depict the fold change relative to vehicle (DMSO) control.

Row | Structure (SMILES) | SMN protein levels (SMN protein [1]) | SMN per viable cell (normalized hit) (SMN protein [1]) | SMN protein relative to control proteins GAPdH and eIF4E (SMN protein [2])
1 | NC12CC3CC(CC(C3)C1)C2 [amantadine] | increase SMN protein levels | normalized hits | 
2 | CC12CC3CC(C)(C1)CC(N)(C3)C2 [memantine, 1-amino-3,5-dimethyl adamantane] | increase SMN protein levels | normalized hits | increases in SMN protein
